Data on 16 compounds can be found in ChEMBL document CHEMBL1208730, “Heteroaryl-linked 5-(1H-benzimidazol-1-yl)-2-thiophenecarboxamides: potent inhibitors of polo-like kinase 1 (PLK1) with improved drug-like properties” (Bioorg Med Chem Lett, 2010).

Series [1] can be described thus: Solubility of the compound in 20% SBE beta-cyclodextrin at pH 6. It is filed as physicochemical.
A short description of series [2]: Clearance in iv dosed mouse. It is filed as ADME, organism-based. The following applies: in vivo.

Converted amounts (≈) assume the structure as drawn.

The solubility is the concentration that dissolves in the medium under given conditions. Low values mean little dissolved substance, high ones much dissolved substance. Usually clearance stands for a measure of how efficiently the substance is removed, as volume per time. Read a low clearance as a low capacity for elimination. As for `C[C@@H](Oc1cc(-n2cnc3cc(-c4ccnc(N)c4)ccc32)sc1C(N)=O)c1ccccc1C(F)(F)F`, in series [1], the concentration in solution (solubility) was 1000 µg/mL (≈ 1910 µM). In series [2], the clearance was 38 mL/min/kg. Consider `C[C@@H](Oc1cc(-n2cnc3cc(-c4ccnc(N)n4)ccc32)sc1C(N)=O)c1ccccc1C(F)(F)F`, for which the concentration in solution in series [1] (solubility) came to 200 µg/mL (≈ 381 µM). The clearance in series [2] was 70 mL/min/kg.

In series [2], `C[C@@H](Oc1cc(-n2cnc3cc(-c4ccnc(N5CCNCC5)c4)ccc32)sc1C(N)=O)c1ccccc1Cl` gave a clearance of 58 mL/min/kg. The compound `C[C@@H](Oc1cc(-n2cnc3cc(-c4ccnc(N5CCN(C)CC5)c4)ccc32)sc1C(N)=O)c1ccccc1Cl` gave a solubility in series [1] of 500 µg/mL (≈ 872 µM). The compound further returned a clearance in series [2] of 52 mL/min/kg. `C[C@@H](Oc1cc(-n2cnc3cc(-c4ccnc(N5CCN(C)CC5)c4)ccc32)sc1C(N)=O)c1ccccc1C(F)(F)F` registered a solubility in series [1] of 870 µg/mL (≈ 1430 µM). Further, the clearance in series [2] is 32 mL/min/kg. As for `C[C@@H](Oc1cc(-n2cnc3cc(-c4ccnc(NCCN(C)C)c4)ccc32)sc1C(N)=O)c1ccccc1C(F)(F)F`, in series [1], the solubility is 3230 µg/mL (≈ 5430 µM). The clearance in series [2] stood at 62 mL/min/kg. The compound `C[C@@H](Oc1cc(-n2cnc3cc(-c4ccnc(NCCS(C)(=O)=O)c4)ccc32)sc1C(N)=O)c1ccccc1Cl` gave a solubility in series [1] of 30 µg/mL (≈ 50.3 µM).

Turning to `C[C@@H](Oc1cc(-n2cnc3cc(-c4ccnc(NCCO)c4)ccc32)sc1C(N)=O)c1ccccc1Cl`, the concentration in solution in series [1] (solubility) came to 300 µg/mL (≈ 562 µM). This compound returned a clearance in series [2] of 109 mL/min/kg.

Regarding `C[C@@H](Oc1cc(-n2cnc3cc(-c4ccnc(NC5CCN(C)CC5)c4)ccc32)sc1C(N)=O)c1ccccc1Cl`, the concentration in solution in series [1] (solubility) came to 1050 µg/mL (≈ 1790 µM). In series [2], this compound gave a clearance of 48 mL/min/kg. In the same order, the values of `C[C@@H](Oc1cc(-n2cnc3cc(-c4ccc(NC5CCN(C)CC5)nc4)ccc32)sc1C(N)=O)c1ccccc1Cl` are 2930 µg/mL (≈ 4990 µM) and 19 mL/min/kg. In series [1], `C[C@@H](Oc1cc(-n2cnc3cc(-c4cnn(CCN5CCOCC5)c4)ccc32)sc1C(N)=O)c1ccccc1Cl` displayed a solubility of 530 µg/mL (≈ 918 µM). In series [2], this compound came in with a clearance of 82 mL/min/kg. The compound `C[C@@H](Oc1cc(-n2cnc3cc(-c4cnn(CCN5CCN(C)CC5)c4)ccc32)sc1C(N)=O)c1ccccc1Cl` had a solubility in series [1] of 4550 µg/mL (≈ 7710 µM). Moreover, in series [2], the clearance was determined as 54 mL/min/kg. In the same order, the values of `C[C@@H](Oc1cc(-n2cnc3cc(-c4cnn(CCCN(C)C)c4)ccc32)sc1C(N)=O)c1ccccc1Cl` are 5830 µg/mL (≈ 10600 µM) and 44 mL/min/kg. Take `CCN1CCN(CCCn2cc(-c3ccc4c(c3)ncn4-c3cc(O[C@H](C)c4ccccc4Cl)c(C(N)=O)s3)cn2)CC1`: in series [1], the solubility is 3120 µg/mL (≈ 5050 µM). For the same compound, the clearance in series [2] is 44 mL/min/kg. In the same order, the values of `C[C@@H](Oc1cc(-n2cnc3cc(-c4ccncc4)ccc32)sc1C(N)=O)c1ccccc1Cl` are 3 µg/mL (≈ 6.32 µM) and 70 mL/min/kg. In the case of `C[C@@H](Oc1cc(-n2cnc3cc(-c4cnn(C)c4)ccc32)sc1C(N)=O)c1ccccc1Cl`, in series [1], the concentration in solution (solubility) was 100 µg/mL (≈ 209 µM). The clearance in series [2] amounted to 15 mL/min/kg.
